Common to all, as to type: cell-based, human
The subject of assay [1] is U-2 OS cells. The experiment in a line: Cell proliferation under doxorubicin treatment, parental cells. Conditions: parental U-2 OS cells. As to the method: (§1) The effect on cell proliferation in the presence of 450 ng/mL of the anticancer agent doxorubicin was examined.
Assay [2] deals with U-2/Neo8 cells. The assay can be described thus: Cell proliferation under doxorubicin treatment, control gene-introduced cells. The settings on record: U-2/Neo8 control cells. As to the method:
as §1

In assay [3] the test system is U-2 OS/DX580 cells. The experiment in a line: Cell proliferation under doxorubicin treatment, MDR variant cells. Conditions: U-2 OS/DX580 MDR variants, 450 ng/mL doxorubicin. As to the method: as §1
In assay [4] the test system is U-2/DOXO 35 cells. The assay can be described thus: Cell proliferation under doxorubicin treatment, MDR1 gene-introduced cells. Conditions: U-2/DOXO 35 (MDR1 gene introduced), 450 ng/mL doxorubicin. As to the method: as §1
In assay [5] the test system is RB1CC1 gene. The experiment in a line: Northern blot of RB1CC1 gene expression after doxorubicin, parental U-2 OS cells. Conditions: doxorubicin treatment, over time. As to the method: (§2) Expression levels of RB1CC1 gene and MDR1 gene in parental U2 OS cells and several kinds of MDR-variant cells were analyzed by Northern blotting. A probe hybridizing between nucleotide numbers 4190 and 4654 of the RB1CC1 gene sequence was used as a probe for analysis of RB1CC1 gene, and a probe hybridizing between nucleotide numbers 834 and 1119 of MDR1 gene was used for MDR1 gene. Probes were used after labeling with α-32P-dCTP in which phosphorus at an alpha position of […] was substituted with a radioactive isotope. Glyceraldehyde-3-phosphate dehydrogenase (GAPDH) was used as the indicator of mRNA expression.
(§3) mRNA expression levels of cells that were obtained over time in the above-mentioned experiment were analyzed. Analysis was conducted for the novel gene RB1CC1 gene of the present invention, the RB1 gene and the MDR1 gene, respectively, in the same manner as Example 3 with the exception that expression levels of the RB1 gene were detected using a probe hybridizing to the site at nucleotides 336 to 675 of the nucleotide sequence of human RB1 mRNA. […] In contrast, in MDR variants of U-2 OS cells (U-2 OS/DX580) and U-2 OS cells introduced with MDR1 gene (U-2/DOXO 35), expression level of RB1CC1 gene was not inhibited by treatment with doxorubicin, and expression of RB1CC1 gene increased. […]

Assay [6] concerns RB1CC1 gene. The experiment in a line: Northern blot of RB1CC1 gene expression after doxorubicin, U-2/Neo8 cells. The settings on record: U-2/Neo8 control cells, doxorubicin treatment, over time. As to the method: as §2, §3
Assay [7] has as its system RB1CC1 gene. The assay can be described thus: Northern blot of RB1CC1 gene expression after doxorubicin, U-2 OS/DX580 cells. Conditions: U-2 OS/DX580 MDR variants, doxorubicin treatment. As to the method: as §2, §3
Assay [8] deals with RB1CC1 gene. The assay can be described thus: Northern blot of RB1CC1 gene expression after doxorubicin, U-2/DOXO 35 cells. The settings on record: U-2/DOXO 35 (MDR1 gene introduced), doxorubicin treatment. As to the method: as §2, §3

“Also recorded” adds a separate entry of the source.

For the molecule `COc1cccc2c1C(=O)c1c(O)c3c(c(O)c1C2=O)C[C@@](O)(C(=O)CO)C[C@@H]3O[C@H]1C[C@H](N)[C@H](O)[C@H](C)O1` [doxorubicin], the “effect on cell proliferation” value is “suppressed” in assay [1] (450 ng/mL doxorubicin), “suppressed” in assay [2] (450 ng/mL doxorubicin), “did not exhibit an inhibitory effect; also recorded: had no effect” in assay [3] and “had no effect” in assay [4]. The cell death result in assay [1] (doxorubicin treatment) and in assay [2] (doxorubicin treatment) was “induced cell death” throughout. For the same molecule, the “expression of the RB1CC1 gene (mRNA)” value in assay [5] was “lowered expression; also recorded: decreased over time”; in assay [6], “lowered expression; also recorded: decreased over time”; in assay [7], “did not exhibit an inhibitory effect; also recorded: not inhibited”; in assay [8], “increased; also recorded: not inhibited”.

The values are drawn from patent US20060194293A1, “Rb1 gene induced protein (rb1cc1) and gene” (Tokuhiro CHANO, priority 2003, published 2006).
